“Also recorded” adds a separate entry of the source.
Assays:
C2C12 myotubes = assay: C2C12 myotube hypertrophy (myotube diameter); assay type: cell-based; conditions: LY294002 10 μM; for IGF-1-induced myotube hypertrophy: D2 myotubes, IGF-1 10 ng ml-1 plus CsA 5 μM, rapamycin 2 ng ml-1, PD98059 or Ara-C 10 μM; for myotube size / hypertrophy, agent alone: D2 myotubes treated at day 2 after fusion, analysed day 4, IGF-1 10 ng ml-1, CsA 5 μM, Ca-I 1 μM
Procedure: FIG. 9. […] Myotubes were treated at day 2 after fusion with the PI(3)K inhibitor LY294002 (LY; 10 μM), the mTOR inhibitor rapamycin (RAP, 2 ng ml-1), IGF-1 (10 ng ml-1) and with a combination of IGF-1 and each inhibitor, and analyzed for morphological effects at day 4. […] C2C12 myotubes were treated at day 2 after induction of differentiation with IGF-1 (10 ng ml-1) or a combination of Ara-C (10 μM) and IGF-1 (10 ng ml-1), and analysed the next day. Untreated myotubes are shown (CON). […] Quantification of myotube diameters is shown. The average number of nuclei per myotube is presented for each condition in the bottom row.
To distinguish between effects on myoblast differentiation and those on the trophic state of existing myofibres, we exploited the C2C12 myoblast differentiation system. C2C12 myoblasts proliferate until they reach confluence; then, in serum-poor medium, the myoblasts fuse into multi-nucleated myotubes. Differentiated myotubes are predominant by 2 days after fusion (D2 myotubes) and survive for another 3 days. […] IGF-1-induced myotube hypertrophy, as measured by an increase in diameter and an increase in total protein, is normally accompanied by an increase in nuclei within the myofibres.
To obtain more direct evidence, we next used the pharmacological inhibitors of the calcineurin and PI(3)K/Akt pathways in assays of IGF-1-induced myotube hypertrophy. Further, we introduced gene-expression vectors into the myotubes that induced the expression of either activators or dominant-negative blockers of these pathways.
C2C12 myoblasts were cultured and transfected as described (Glass, D. J. et al. Cold Spring Harb. Symp. Quant. Biol. 57, 53-62 (1992)). Flow cytometry and cell sorting were performed on a Cytomation MoFlo (Fort Collins, Colorado) high-speed cell sorter (FACS) (Rommel, C. et al. Science 286, 1738-1741 (1999)). Myoblasts were fused into myotubes at confluence, by shifting the medium to DMEM+2% horse serum. Myotube diameter was quantified as follows: 10 fields were chosen randomly, and approximately 10 myotubes were measured per field. The average diameter per myotube was calculated as the mean of ten measurements taken along the length of the myotube. For the constitutively active Akt, kinaseinactive Akt, wild-type Akt, wild-type SHIP2, dominant-negative SHIP2, constitutively active p70S6K and dominant-negative GSK3β constructs, transfected myotubes were determined by the co-expression of enhanced green fluorescent protein (EGFP; see below for construct details); thus, only transfected myotubes were assessed for hypertrophy. For the tetracycline-inducible calcineurin, myotubes expressing calcineurin were identified by EGFP expression, and comparisons were made between EGFP-positive and EGFP-negative myotubes. […]

PI(3)K/Akt/mTOR pathway = assay: PI(3)K/Akt/mTOR and ERK signalling in C2C12 differentiated myotubes (immunoblot, kinase assay); assay type: cell-based; conditions: for phosphorylation of downstream targets of the PI(3)K/Akt/mTOR pathway (Akt, p70S6K, GSK3, PHAS-1/4E-BP1): IGF-1 10 ng ml-1 or Ca-I 1.0 μM, 15 min
From the text: (§1) As a first step towards examining the roles of the calcineurin/NFAT and PI(3)K/Akt pathways during IGF-induced myotube hypertrophy, we added IGF-1 to differentiated myotubes and determined whether these pathways were activated. Calcineurin is a protein phosphatase that is activated by increases in intracellular calcium levels, which in turn dephosphorylates the NFAT transcription factors; this dephosphorylation results in the translocation of NFATs to the nucleus and subsequent gene transcription. NFAT dephosphorylation and nuclear translocation are therefore markers of calcineurin activation (FIG. 7, right). For markers of activation of the PI(3)K/Akt pathway, the phosphorylation of Akt itself or of downstream targets such as p70S6 kinase (p70S6K), PHAS-1/4E-BP1 or GSK3 were used (FIG. 7).
(§2) Protein analysis of total cell lysates was conducted as described8. The antibodies used were anti-phospho-Erk1/2 (Thr 202/Tyr 204; NEB); anti-phospho-Akt (Ser 473; NEB); anti-phospho- GSK3 (Ser 9/21; NEB); anti-phospho-p70S6K (Thr 389; NEB); anti-phospho-PHAS-1/4E-BP1 (Thr 65; NEB); anti-Erk1/2 (UBI), anti-Akt (NEB), anti-p70S6K (C-18; Santa Cruz), anti-PHAS-1/4EBP1 (Zymed) and anti-NFAT-C1 (7A6; Santa Cruz).
(§3) Immunoprecipitations and immunoblotting were performed as described. Proteins were detected with the chemiluminescence detection system Renaissance; NEN). To measure the enzymatic activity of p70S6K an immunocomplex kinase assay was performed as described (Azpiazu, I., Saltiel, A. R., DePaoli-Roach, A. A. & Lawrence, J. C. J. Biol. Chem. 271, 5033-5039 (1996)).

calcineurin/NFAT-C1 = assay: NFAT-C1 phosphorylation and translocation in C2C12 differentiated myotubes (immunoblot); assay type: cell-based; conditions: for NFAT-C1 phosphorylation state and nuclear translocation: IGF-1 10 ng ml-1 or Ca-I 1.0 μM, 15 min
From the text: as §1, §2, §3

[1] = Rapamycin given to control (surgically untreated) adult animals; assay type: in vivo, rat; conditions: rapamycin for 14 days, data not shown
From the text: The above findings indicate that the Akt pathway and its downstream targets are activated during muscle hypertrophy in vivo. To begin to determine the role of these activations, we used treatment in vivo with rapamycin, a quite specific inhibitor of one important Akt target, mTOR. Rapamycin, a selective blocker of mTOR, blocked hypertrophy in all models without causing atrophy in control muscles Rapamycin binds to its intracellular receptor, forming a complex that then binds to and inhibits mTOR activity (Schmeizie, T. & Hall, M. N. Cell 103, 253-262 (2000).). […] Treatment with rapamycin produced no non-specific effects; that is, there was no effect on body weight or the baseline weight of non-overloaded hindlimb muscles in these animals. Further, rapamycin given to control (surgically untreated) adult animals for 14 days had no effect on body weight or muscle weight (data not shown). In addition to the above results from rats, similar results were obtained when this hypertrophy model was performed in mice (data not shown).

rat plantaris muscle = assay: Compensatory hypertrophy of the plantaris after surgical overload; assay type: in vivo
Procedure: Female Sprague-Dawley rats (250-275 g) were anaesthetized with ketamine/xylazine (50/10 mg kg-1, intraperitoneally); with the use of aseptic surgical techniques the soleus, medial gastrocnemius and lateral gastrocnemius muscles were removed bilaterally, producing a functional overload on the plantaris muscles. In some instances, plasmid DNA (100 μl) was injected into the muscle immediately after the procedure. The hindlimbs of adult female SD rats (225-250 g) were unloaded by suspending their tails with a tail-traction bandage as described29. At the appropriate times, rats were killed and hindlimb muscles were removed, weighed and frozen in isopentane cooled with liquid nitrogen. Weight-matched surgically untreated rats served as controls.
Transfection in vivo. Constructs used encoded the following: (1) myristoylated, c.a. […]
Muscle fibre size was obtained from digitally imaged serial cross-sections of cryostat-sectioned muscle. Individual muscle fibres were outlined and cross-sectional area was determined with a computerassisted image analysis system (MetaMorph™; Universal Imaging Corporation). All data are expressed as means ±s.e.m. […]

Row | Compound | IGF-1-induced myotube hypertrophy (C2C12 myotubes) | myotube size / hypertrophy, agent alone (C2C12 myotubes) | phosphorylation of downstream targets of the PI(3)K/Akt/mTOR pathway (Akt, p70S6K, GSK3, PHAS-1/4E-BP1) (PI(3)K/Akt/mTOR pathway) | NFAT-C1 phosphorylation state and nuclear translocation (calcineurin/NFAT-C1) | further results
1 | COc1cccc(-c2cc(=O)c3ccccc3o2)c1N [PD98059] | did not block phenotypic hypertrophy |  |  |  | IGF-1-induced Akt / PI(3)K/Akt pathway activation (PI(3)K/Akt/mTOR pathway; IGF-1 10 ng ml-1 15 min, CsA 5 μM, LY294002 10 μM, rapamycin 2 ng ml-1, PD98059): without affecting steps in the PI(3)K/Akt/mTOR pathway; IGF-1-induced ERK activation (PI(3)K/Akt/mTOR pathway; IGF-1 10 ng ml-1 15 min, LY294002 10 μM, PD98059 10 μM): did indeed block ERK activation
2 | CNc1ccc2oc(C[C@H]3O[C@@]4(CC[C@H]3C)O[C@H]([C@H](C)C(=O)c3ccc[nH]3)[C@H](C)C[C@H]4C)nc2c1C(=O)O [calcium ionophore, A23187] |  | thinner myotubes | none could be induced | dephosphorylation-induced downshift in NFAT | phosphorylation of downstream targets of the PI(3)K/Akt/mTOR pathway (Akt, p70S6K, GSK3, PHAS-1/4E-BP1) (PI(3)K/Akt/mTOR pathway; listed as Ca-I): had no effect on these kinases
3 | CO[C@H]1C[C@@H]2CC[C@@H](C)[C@@](O)(O2)C(=O)C(=O)N2CCCC[C@H]2C(=O)O[C@H]([C@H](C)C[C@@H]2CC[C@@H](O)[C@H](OC)C2)CC(=O)[C@H](C)/C=C(\C)[C@@H](O)[C@@H](OC)C(=O)[C@H](C)C[C@H](C)/C=C/C=C/C=C/1C [rapamycin] |  |  |  |  | body weight or muscle weight [1]: had no effect; blockage of hypertrophy (rat plantaris muscle; adaptive hypertrophy in adult animals, rapamycin): 95%; body weight or baseline weight of non-overloaded hindlimb muscles (rat plantaris muscle; overloaded rats treated with rapamycin 1.5 mg kg-1 i.p. daily): no effect
4 | IGF-1 |  | resulting in hypertrophy | induced the phosphorylation | hyperphosphorylation of NFAT | calcium-ionophore-induced dephosphorylation and translocation of NFAT-C1 (calcineurin/NFAT-C1; Ca-I 1.0 μM, CsA 5 μM before stimulation or IGF-1 10 ng ml-1 simultaneously): blunted
5 | cytosine-β-D-arabinofuranoside [Ara-C] | myotube diameter and total protein still increase; also recorded: does not inhibit IGF-1-mediated hypertrophy |  |  |  | 

Source: US20020123456A1, “Methods of identifying agents affecting atrophy and hypertrophy” (priority 2001, published 2002)
